Measured values taken from patent publication US20080003226A1, “Method to Reduce Hepatoxicity of Fas-Mediated Apoptosis-Inducing Agents” (APOXIS SA, priority 2004, published 2008).

Test system: mesothelioma and ovarian cancer cell lines
Experiment: Cytotoxicity of MegaFasL as single agent and in combination with cisplatin in vitro
Assay type: cell-based
Settings: compound alone
Description: Use of the Fas-mediated apoptosis inducing agents defined above and more particularly hexamers of the soluble fraction of FasL as defined above as an adjuvant with existing chemotherapies is another embodiment of the present invention. […] Actually, the antitumor effectiveness of MegaFasL as single agent and in combination with cisplatin was evaluated first on mesothelioma and ovarian cancer cell lines in vitro.

## N.N.[Cl][Pt][Cl] [cisplatin]
  cell death: only marginal cell death
